Reference: patent US10179355B2, “Bioremediation enhancing agents and methods of use” (JRW BIOREMEDIATION, LLC, priority 2007, dated 2019)

Key:
[1] = system: dechlorinating bacteria known to convert PCE to ethene; experiment: Set D: Lactic Acid Solids, PCE dechlorination microcosms (kinetics, Relative Rate); assay type: cell-based, Dehalococcoides and Dehalobacter spp.
Description: Certain contaminated materials (or sites) may contain indigenous microbial communities that are sufficient for complete bioremediation of contaminants. For such sites, there is no need to add microbes unless the indigenous microbes are genetically deficient in achieving the desired clean-up goals. For those sites that are microbiologically limited, microorganisms may be added to the contaminated materials (or sites). In one embodiment, the inoculum may be a mixed culture of halo-respiring bacteria that have been enriched to reach an optimal cell density. These mixed cultures of halo-respiring bacteria may be typically obtained from sediment samples from rivers, streams or any waterways. More specifically, the inoculum used in the Examples was originated from a Sangamon River sediment sample (Lodge Park, Piatt County, Ill.) See, e.g., Brennan, R. A., Sanford, R. A. and […]. (2006). “Biodegradation of Tetrachloroethene by Chitin Fermentation Products in a Continuous Flow Column System.” Journal of Environ. Engr., June 665-673. […] Brennan, R. A., and Sanford, R. A. (2002). “Continuous steady-state method using Tenax for delivering tetrachloroethene to chlororespiring bacteria.” Appl. Environ. […] Using 16S rRNA gene-specific primers, both Dehalococcoides and Dehalobacter spp. were detected. […] For purpose of this disclosure, each bottle may be started with a certain amount of PCE. At subsequent times each bottle may be sampled for the degradation daughter products of PCE, namely trichloroethene (TCE), cis-dichloroethene (DCE), vinyl chloride (VC) and ethene, etc. […] The rate of degradation may be determined by calculating the number of pmoles of chloride ions removed from PCE and subsequently from the amounts of the daughter products generated. The calculation may be performed as follows: […] Next, the dechlorination rate may be determined for each bottle at each time by dividing the Chloride generated by the time (days). […] This ratio is called Relative Rate and is dimensionless. As shown in the Examples, a paired t-test has been conducted to calculate the probability that the Relative Rate of one group (i.e. with Nutrient) is greater than the other group (i.e. without Nutrient). The null hypothesis is that the underlying means of the two paired groups are equal. The Probability that one group has higher Relative Rates than the other group is shown in various tables in the Examples. […] Lactic Acid Solids is a mixture of lactic acid, oligimers of lactic acid and residual sugars. […] In addition, this set was used to characterize if and to what extent the Lactic Acid Solids was an efficacious electron donor for anaerobic bioremediation of contaminants in water.

[2] = system: dechlorinating bacteria known to convert PCE to ethene; experiment: Set G: Efficiency by VFA Analysis; assay type: cell-based, Dehalococcoides and Dehalobacter spp.
Description: Sets B, C, D, E, and G further contain figures and tables showing results of the characterization of the Efficiency and the Relative Efficiency of electron donor usage. Efficiency may be defined as the percent of electron donor utilized for dechlorination, and may be calculated by dividing the pmoles of Chloride ion generated by the pmoles of electron donor consumed as measured by either Volatile Fatty Acid (VFA) analysis (Sets B, C, and G) or Chemical Oxygen Demand (COD) analysis (Set D and E). The Relative Efficiency of the electron donor utilization may be defined as the Efficiency of the Electron Donor divided by the Efficiency of the Lactate Control.
The method used to calculate the consumption of the electron donor measured the propionate, acetate and formate levels to calculate the consumption of electron donor over time. The lactate and propionate fermented very rapidly resulting in acetate and formate as the only measurable VFAs.
Set G contained microcosms that tested two different Yeast Metabolites (YM3 and YM4) and a Polysaccharide (PS1) for kinetics and efficiency of electron donor utilization using lactate and molasses as the electron donors. PS1 was also tested as an electron donor by itself.
Lactate at 11.2 mM (1,000 mg/L) and nutrient amendment at 1% of the electron donor levels (˜10 mg/L). Triplicate bottles received 2 micro liters of PCE and 2 ml of inoculum. The bottles were sampled 5 times over a 138 day period.

For `CC(O)C(=O)[O-].[Na+]` (stereo not shown) [Lactate Control, sodium lactate], the “Cl^− Rate ± s.d.” value ([1]; 0 days) was 0.00 ± 0.00 µmol, the “Cl^− ± s.d.” value ([1]; 0 days) was 0.00 ± 0.00 µmol and the “DCE ± s.d.” value ([1]; 0 days) was 0.00 ± 0.00 µmol. The “Ethene ± s.d.” value ([1]; 0 days) was 0.00 ± 0.00 µmol, the “PCE ± s.d.” value ([1]; 0 days) was 19.54 ± 0.00 µmol and the “TCE ± s.d.” value ([1]; 0 days) was 0.00 ± 0.00 µmol. For the same compound, the “VC ± s.d.” value ([1]; 0 days) was 0.00 ± 0.00 µmol, the “Cl^− Rate ± s.d.” value ([1]; 22 days) was 2.64 ± 0.00 µmol and the “Cl^− ± s.d.” value ([1]; 22 days) was 58.02 ± 0.10 µmol. For the same compound, the “DCE ± s.d.” value ([1]; 22 days) was 10.02 ± 0.06 µmol, the “Ethene ± s.d.” value ([1]; 22 days) was 0.25 ± 0.07 µmol and the “PCE ± s.d.” value ([1]; 22 days) was 0.00 ± 0.00 µmol. The “TCE ± s.d.” value ([1]; 22 days) was 0.00 ± 0.00 µmol, the “VC ± s.d.” value ([1]; 22 days) was 0.10 ± 0.03 µmol and the “Cl^− Rate ± s.d.” value ([1]; 36 days) was 1.18 ± 0.01 µmol. For the same compound, the “Cl^− ± s.d.” value ([1]; 36 days) was 63.68 ± 0.46 µmol, the “DCE ± s.d.” value ([1]; 36 days) was 7.18 ± 0.26 µmol and the “Ethene ± s.d.” value ([1]; 36 days) was 0.23 ± 0.19 µmol. The “PCE ± s.d.” value ([1]; 36 days) was 0.00 ± 0.00 µmol, the “TCE ± s.d.” value ([1]; 36 days) was 0.01 ± 0.02 µmol and the “VC ± s.d.” value ([1]; 36 days) was 0.08 ± 0.01 µmol. For the same compound, the “Cl^− Rate ± s.d.” value ([1]; 50 days) was 1.29 ± 0.06 µmol, the “Cl^− ± s.d.” value ([1]; 50 days) was 64.63 ± 2.77 µmol and the “DCE ± s.d.” value ([1]; 50 days) was 4.98 ± 0.67 µmol. The “Ethene ± s.d.” value ([1]; 50 days) was 0.20 ± 0.09 µmol, the “PCE ± s.d.” value ([1]; 50 days) was 0.00 ± 0.00 µmol and the “TCE ± s.d.” value ([1]; 50 days) was 0.00 ± 0.00 µmol. The “VC ± s.d.” value ([1]; 50 days) was 3.57 ± 1.88 µmol, the “efficiency of electron donor utilization for dechlorination (in words)” value ([2]; Set G) was “statistically more efficient an electron donor as compared to PS1 and molasses” and the “Estimated % Efficiency” value ([2]; e^- used dechlorination / e^- used donor) was 5.392%. The “Relative Efficiency” value ([2]; relative to Lactate Control = 100%) was 100%.
